Measurements from PubChem BioAssay AID330 (DTP/NCI, 2004).
Values joined by “and” are separate entries in the source; they are usually repeats but may differ in a detail not shown here. Equal values may be shown once. Inconclusive results and toxic doses are left out.

System: P388 leukemia ip, CD2F1 mice, survival T/C
Assay: NCI In Vivo Anticancer Drug Screen. Data for tumor model P388 Leukemia (intraperitoneal) in CD2F1 (CDF1) mice
Conditions: endpoint: median survival time, higher = longer survival
Procedure, shortened: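 Mice carrying the transplanted tumor received test compound or vehicle. Survival was recorded in each group, and the value is the treated-group measurement divided by that of the vehicle-treated control group.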

[1] = dose: 60.0 mg/kg/injection, schedule: Q01DX005 (ip), vehicle: saline
[2] = dose: 120.0 mg/kg/injection, schedule: Q01DX005 (ip), vehicle: saline

O=C(O)CCCc1ccc(N(CCCl)CCCl)cc1
T/C (dose: 1.0 mg/kg/injection, schedule: Q01DX005 (ip), vehicle: saline with Tween-80): 106 % of control
T/C (dose: 1.0 mg/kg/injection, schedule: Q03HX024 (ip), vehicle: saline): 109 % of control
T/C (dose: 1.25 mg/kg/injection, schedule: Q01DX005 (ip), vehicle: saline with Tween-80): 113 % of control and 119 % of control and 121 % of control
T/C (dose: 1.3 mg/kg/injection, schedule: Q01DX009 (ip), vehicle: saline + alcohol): 117 % of control
T/C (dose: 2.0 mg/kg/injection, schedule: Q01DX005 (ip), vehicle: saline with Tween-80): 113 % of control
T/C (dose: 2.0 mg/kg/injection, schedule: Q03HX016 (ip), vehicle: saline): 123 % of control
T/C (dose: 2.0 mg/kg/injection, schedule: Q03HX024 (ip), vehicle: saline): 163 % of control
T/C (dose: 2.0 mg/kg/injection, schedule: Q04DX003 (ip), vehicle: Klucel (hydroxypropylcellulose) (HPC)): 110 % of control
T/C (dose: 2.2 mg/kg/injection, schedule: Q01DX009 (ip), vehicle: saline + alcohol): 120 % of control
T/C (dose: 2.59 mg/kg/injection, schedule: Q04DX002 (ip), vehicle: saline with Tween-80): 114 % of control
T/C (dose: 3.24 mg/kg/injection, schedule: Q01DX009 (ip), vehicle: Klucel (hydroxypropylcellulose) (HPC)): 160 % of control
T/C (dose: 3.6 mg/kg/injection, schedule: Q01DX009 (ip), vehicle: saline + alcohol): 115 % of control
T/C (dose: 3.75 mg/kg/injection, schedule: Q01DX009 (ip), vehicle: Klucel (hydroxypropylcellulose) (HPC)): 118 % of control
T/C (dose: 4.0 mg/kg/injection, schedule: Q01DX009 (ip), vehicle: saline): 120 % of control
T/C (dose: 4.0 mg/kg/injection, schedule: Q01DX009 (sc), vehicle: saline): 118 % of control
T/C (dose: 4.0 mg/kg/injection, schedule: Q03HX008 (ip), vehicle: saline): 150 % of control
T/C (dose: 4.0 mg/kg/injection, schedule: Q03HX016 (ip), vehicle: saline): 204 % of control
T/C (dose: 4.0 mg/kg/injection, schedule: Q04DX003 (ip), vehicle: Klucel (hydroxypropylcellulose) (HPC)): 111 % of control
T/C (dose: 4.32 mg/kg/injection, schedule: Q04DX002 (ip), vehicle: saline with Tween-80): 119 % of control
T/C (dose: 4.5 mg/kg/injection, schedule: Q01DX009 (ip), vehicle: saline + alcohol): 153 % of control
T/C (dose: 5.0 mg/kg/injection, schedule: Q01DX009 (ip), vehicle: saline + alcohol): 154 % of control
T/C (dose: 5.4 mg/kg/injection, schedule: Q01DX009 (ip), vehicle: Klucel (hydroxypropylcellulose) (HPC)): 180 % of control
T/C (dose: 6.7 mg/kg/injection, schedule: Q01DX009 (ip), vehicle: saline + alcohol): 180 % of control
T/C (dose: 7.5 mg/kg/injection, schedule: Q01DX009 (ip), vehicle: Klucel (hydroxypropylcellulose) (HPC)): 122 % of control
T/C (dose: 8.0 mg/kg/injection, schedule: Q01DX005 (ip), vehicle: saline with Tween-80): 186 % of control
T/C (dose: 8.0 mg/kg/injection, schedule: Q01DX009 (ip), vehicle: saline): 170 % of control
T/C (dose: 8.0 mg/kg/injection, schedule: Q01DX009 (sc), vehicle: saline): 118 % of control
T/C (dose: 8.0 mg/kg/injection, schedule: Q03HX016 (ip), vehicle: saline): 200 % of control
T/C (dose: 8.0 mg/kg/injection, schedule: Q03HX024 (ip), vehicle: saline): 90 % of control
T/C (dose: 8.0 mg/kg/injection, schedule: Q04DX003 (ip), vehicle: saline): 113 % of control
T/C (dose: 8.0 mg/kg/injection, schedule: Q04DX003 (ip), vehicle: water): 113 % of control
T/C (dose: 9.0 mg/kg/injection, schedule: Q01DX009 (ip), vehicle: Klucel (hydroxypropylcellulose) (HPC)): 152 % of control
T/C (dose: 10.0 mg/kg/injection, schedule: Q01DX009 (ip), vehicle: saline + alcohol): 166 % of control and 172 % of control and 183 % of control
T/C (dose: 10.0 mg/kg/injection, schedule: Q01DX009 (ip), vehicle: saline with Tween-80): 160 % of control
T/C (dose: 15.0 mg/kg/injection, schedule: Q01DX009 (ip), vehicle: Klucel (hydroxypropylcellulose) (HPC)): 115 % of control
T/C (dose: 15.0 mg/kg/injection, schedule: Q01DX009 (ip), vehicle: saline with Tween-80): 173 % of control
T/C (dose: 16.0 mg/kg/injection, schedule: Q01DX001 (ip), vehicle: saline): 113 % of control
T/C (dose: 16.0 mg/kg/injection, schedule: Q01DX001 (sc), vehicle: saline): 104 % of control
T/C (dose: 16.0 mg/kg/injection, schedule: Q01DX005 (ip), vehicle: saline with Tween-80): 176 % of control
T/C (dose: 16.0 mg/kg/injection, schedule: Q01DX009 (sc), vehicle: saline): 122 % of control
T/C (dose: 16.0 mg/kg/injection, schedule: Q03HX008 (ip), vehicle: saline): 186 % of control
T/C (dose: 16.0 mg/kg/injection, schedule: Q03HX016 (ip), vehicle: saline): 95 % of control
T/C (dose: 16.0 mg/kg/injection, schedule: Q04DX003 (ip), vehicle: Klucel (hydroxypropylcellulose) (HPC)): 169 % of control
T/C (dose: 16.0 mg/kg/injection, schedule: Q08DX002 (ip), vehicle: saline): 154 % of control
T/C (dose: 16.7 mg/kg/injection, schedule: Q01DX009 (ip), vehicle: saline + alcohol): 120 % of control
T/C (dose: 20.0 mg/kg/injection, schedule: Q01DX009 (ip), vehicle: saline with Tween-80): 187 % of control
T/C (dose: 20.0 mg/kg/injection, schedule: Q04DX002 (ip), vehicle: saline with Tween-80): 163 % of control
T/C (dose: 27.8 mg/kg/injection, schedule: Q01DX009 (ip), vehicle: saline + alcohol): 59 % of control
T/C (dose: 32.0 mg/kg/injection, schedule: Q01DX001 (sc), vehicle: saline): 109 % of control
T/C (dose: 32.0 mg/kg/injection, schedule: Q04DX003 (ip), vehicle: Klucel (hydroxypropylcellulose) (HPC)): 100 % of control
T/C (dose: 32.0 mg/kg/injection, schedule: Q04DX003 (ip), vehicle: saline): 190 % of control
T/C (dose: 32.0 mg/kg/injection, schedule: Q04DX003 (ip), vehicle: water): 154 % of control and 212 % of control
T/C (dose: 32.0 mg/kg/injection, schedule: Q08DX002 (ip), vehicle: saline): 190 % of control
T/C (dose: 64.0 mg/kg/injection, schedule: Q01DX001 (sc), vehicle: saline): 113 % of control

Cc1c([N+](=O)[O-])c(=O)oc2c1ccc1occc(=O)c12
T/C (dose: 50.0 mg/kg/injection, schedule: Q01DX005 (ip), vehicle: saline with Tween-80): 96 % of control
T/C (dose: 100.0 mg/kg/injection, schedule: Q01DX005 (ip), vehicle: saline with Tween-80): 89 % of control
T/C (dose: 200.0 mg/kg/injection, schedule: Q01DX005 (ip), vehicle: saline with Tween-80): 90 % of control

c1ccc(N=C2SCCCS2)cc1
T/C (dose: 50.0 mg/kg/injection, schedule: Q01DX009 (ip), vehicle: Klucel (hydroxypropylcellulose) (HPC)): 103 % of control
T/C (dose: 100.0 mg/kg/injection, schedule: Q01DX009 (ip), vehicle: Klucel (hydroxypropylcellulose) (HPC)): 97 % of control
T/C (dose: 200.0 mg/kg/injection, schedule: Q01DX009 (ip), vehicle: Klucel (hydroxypropylcellulose) (HPC)): 105 % of control

COc1ccc2c(C)cc(N/N=C(\C)c3ccccn3)nc2c1
T/C (dose: 3.12 mg/kg/injection, schedule: Q01DX005 (ip), vehicle: Klucel (hydroxypropylcellulose) (HPC)): 100 % of control
T/C (dose: 6.25 mg/kg/injection, schedule: Q01DX005 (ip), vehicle: Klucel (hydroxypropylcellulose) (HPC)): 98 % of control
T/C (dose: 12.5 mg/kg/injection, schedule: Q01DX005 (ip), vehicle: Klucel (hydroxypropylcellulose) (HPC)): 90 % of control and 97 % of control
T/C (dose: 25.0 mg/kg/injection, schedule: Q01DX005 (ip), vehicle: Klucel (hydroxypropylcellulose) (HPC)): 95 % of control
T/C (dose: 50.0 mg/kg/injection, schedule: Q01DX005 (ip), vehicle: Klucel (hydroxypropylcellulose) (HPC)): 98 % of control and 97 % of control

COc1ccc(C(=O)C(CN2CCOCC2)CN2CCOCC2)cc1
T/C [1]: 96 % of control
T/C [2]: 111 % of control

C#CCNCCCn1c(=O)nc2n(-c3ccccc3)c3ccccc3nc-2c1=O
T/C (dose: 25.0 mg/kg/injection, schedule: Q04DX003 (ip), vehicle: Klucel (hydroxypropylcellulose) (HPC)): 110 % of control
T/C (dose: 50.0 mg/kg/injection, schedule: Q04DX003 (ip), vehicle: Klucel (hydroxypropylcellulose) (HPC)): 106 % of control
T/C (dose: 100.0 mg/kg/injection, schedule: Q04DX003 (ip), vehicle: Klucel (hydroxypropylcellulose) (HPC)): 100 % of control and 107 % of control

OC/C(Cl)=C(\Cl)CO
T/C (dose: 6.25 mg/kg/injection, schedule: Q01DX009 (ip), vehicle: saline): 110 % of control
T/C (dose: 12.5 mg/kg/injection, schedule: Q01DX009 (ip), vehicle: saline): 95 % of control
T/C (dose: 25.0 mg/kg/injection, schedule: Q01DX009 (ip), vehicle: saline): 100 % of control

COC(=O)C1(N2CCOCC2)CCC([C@@H](c2ccccc2)C(C)[N+](=O)[O-])C1 (stereo partly drawn)
T/C (dose: 60.0 mg/kg/injection, schedule: Q01DX005 (ip), vehicle: Klucel (hydroxypropylcellulose) (HPC)): 100 % of control
T/C (dose: 120.0 mg/kg/injection, schedule: Q01DX005 (ip), vehicle: Klucel (hydroxypropylcellulose) (HPC)): 98 % of control
T/C (dose: 240.0 mg/kg/injection, schedule: Q01DX005 (ip), vehicle: Klucel (hydroxypropylcellulose) (HPC)): 99 % of control

CCN(CC)CCN(C)C(C)C(=O)Nc1ccccc1Cl (stereo not drawn)
T/C [1]: 105 % of control
T/C [2]: 100 % of control
